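Compound exposure: 48 hours, 5 concentrations, 96-well plates. Abbreviation: GI50, concentration required for 50% inhibition of growth.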 Active and inactive are the calls of the source. Cut-off read from the data, not from the text of the source: active = GI50 up to about 1.1 µM and inactive = higher.
How the values were obtained:
Experiment in all cases: NCI-60 cell line screen, 48 h
[1] = test system: SK-OV-3
[2] = test system: BT-549
[3] = test system: HT-29
[4] = test system: COLO 205
[5] = test system: MDA-MB-231
[6] = test system: SNB-75
[7] = test system: NCI-H23
[8] = test system: SF-268
[9] = test system: SN12C
[10] = test system: PC-3
[11] = test system: SNB-19
[12] = test system: NCI-H226
[13] = test system: ACHN
[14] = test system: M14
[15] = test system: EKVX
[16] = test system: KM12
[17] = test system: LOX IMVI
[18] = test system: TK-10
[19] = test system: SK-MEL-5
[20] = test system: NCI-H522

SMILES	GI50 [1]	GI50 [2]	GI50 [3]	GI50 [4]	GI50 [5]	GI50 [6]	GI50 [7]	GI50 [8]	GI50 [9]	GI50 [10]	GI50 [11]	GI50 [12]	GI50 [13]	GI50 [14]	GI50 [15]	GI50 [16]	GI50 [17]	GI50 [18]	GI50 [19]	GI50 [20]
Cc1ccccc1N/C(=C(/C(Cl)=C(Cl)Cl)[N+](=O)[O-])n1nnc2ccccc21	15.3 µM (inactive)	14.1 µM (inactive)	19.4 µM (inactive)	15.7 µM (inactive)	21.3 µM (inactive)	16.6 µM (inactive)	19.1 µM (inactive)	15.7 µM (inactive)	17 µM (inactive)	22.1 µM (inactive)	19.6 µM (inactive)	17.6 µM (inactive)	29.2 µM (inactive)	24.5 µM (inactive)	20.5 µM (inactive)	15.9 µM (inactive)				
CCN(CC)C(=O)Cn1c2ccccc2[n+]2cc(N)ccc12	> 100 µM (inactive)	> 100 µM (inactive)	> 100 µM (inactive)	> 100 µM (inactive)	> 100 µM (inactive)	> 100 µM (inactive)	> 100 µM (inactive)	> 100 µM (inactive)		> 100 µM (inactive)	> 100 µM (inactive)	> 100 µM (inactive)	> 100 µM (inactive)	> 100 µM (inactive)	> 100 µM (inactive)	> 100 µM (inactive)	> 100 µM (inactive)	> 100 µM (inactive)	> 100 µM (inactive)	
CN/C(=N/C#N)NCc1ccccc1	> 100 µM (inactive)		> 100 µM (inactive)	> 100 µM (inactive)		> 100 µM (inactive)	> 100 µM (inactive)	> 100 µM (inactive)	> 100 µM (inactive)		> 100 µM (inactive)	> 100 µM (inactive)	> 100 µM (inactive)	> 100 µM (inactive)	0.0512 µM (active)	> 100 µM (inactive)	> 100 µM (inactive)	> 100 µM (inactive)	> 100 µM (inactive)	> 100 µM (inactive)
c1ccc(-c2cnc3nc4ccccc4nc3n2)cc1	2.87 µM (inactive)	3.43 µM (inactive)	7.05 µM (inactive)	2.15 µM (inactive)	2.69 µM (inactive)	2.66 µM (inactive)	3.82 µM (inactive)	4.29 µM (inactive)	9.08 µM (inactive)		13.7 µM (inactive)	3.23 µM (inactive)	1.22 µM (inactive)	6.11 µM (inactive)	2.88 µM (inactive)	1.22 µM (inactive)	3.25 µM (inactive)	4.2 µM (inactive)	3.05 µM (inactive)	3.5 µM (inactive)
COc1ccc(OC)c(C2CCCc3c2cnc2nc(N)nc(N)c32)c1 (configuration not stated)			< 0.01 µM (active)	0.352 µM (active)	> 100 µM (inactive)	0.247 µM (active)	< 0.01 µM (active)		< 0.01 µM (active)	> 71.1 µM (inactive)	0.0703 µM (active)	> 100 µM (inactive)	< 0.01 µM (active)	< 0.01 µM (active)	> 100 µM (inactive)	0.0716 µM (active)	< 0.01 µM (active)	0.0217 µM (active)	< 0.01 µM (active)	< 0.0392 µM (active)
O=C(Nc1ccc(Cl)cc1)c1cc2c(cc1Cl)SC(NNCCO)=NS2(=O)=O	> 100 µM (inactive)	> 100 µM (inactive)	> 100 µM (inactive)	49.7 µM (inactive)	> 100 µM (inactive)	> 100 µM (inactive)	> 100 µM (inactive)	> 100 µM (inactive)		> 100 µM (inactive)	> 100 µM (inactive)	> 100 µM (inactive)	> 100 µM (inactive)	> 100 µM (inactive)	> 100 µM (inactive)	> 100 µM (inactive)	> 100 µM (inactive)	> 100 µM (inactive)	> 100 µM (inactive)	
O=C1c2c(ccc3c2CCC3)CC12Cc1cc3c(cc1C2)CCC3	> 100 µM (inactive)		> 100 µM (inactive)	> 100 µM (inactive)	> 100 µM (inactive)	87.7 µM (inactive)	> 100 µM (inactive)	> 100 µM (inactive)	> 100 µM (inactive)	> 100 µM (inactive)	> 100 µM (inactive)	> 100 µM (inactive)	> 100 µM (inactive)	> 100 µM (inactive)	> 100 µM (inactive)	> 100 µM (inactive)	> 100 µM (inactive)	> 100 µM (inactive)	> 100 µM (inactive)	> 100 µM (inactive)
CCOC(=O)C[n+]1cccc(C2(c3cc4ccccc4[nH]3)OCCO2)c1	> 100 µM (inactive)	> 100 µM (inactive)	> 100 µM (inactive)	> 100 µM (inactive)	> 100 µM (inactive)	> 100 µM (inactive)	> 100 µM (inactive)	> 100 µM (inactive)		> 100 µM (inactive)	> 100 µM (inactive)	> 100 µM (inactive)	> 100 µM (inactive)	> 100 µM (inactive)	> 100 µM (inactive)	> 100 µM (inactive)	> 100 µM (inactive)	> 100 µM (inactive)	> 100 µM (inactive)	
N#Cc1nc(-c2ccccc2C(=O)O)oc1N	> 100 µM (inactive)		> 100 µM (inactive)	> 100 µM (inactive)	> 100 µM (inactive)	> 100 µM (inactive)	> 100 µM (inactive)	> 100 µM (inactive)	> 100 µM (inactive)	> 100 µM (inactive)	> 100 µM (inactive)	> 100 µM (inactive)	> 100 µM (inactive)	> 100 µM (inactive)	> 100 µM (inactive)	> 100 µM (inactive)	> 100 µM (inactive)	> 100 µM (inactive)	> 100 µM (inactive)	> 100 µM (inactive)
O=C(Cc1ccc(O)c(O)c1)NCc1c[nH]c2ccccc12	> 100 µM (inactive)	43.9 µM (inactive)	> 100 µM (inactive)	42 µM (inactive)		> 100 µM (inactive)	39.1 µM (inactive)	37.8 µM (inactive)		47.1 µM (inactive)	94 µM (inactive)			35.5 µM (inactive)	43.9 µM (inactive)	71.4 µM (inactive)		16.4 µM (inactive)	43.3 µM (inactive)	32.6 µM (inactive)
CC(CO)(CBr)COC(=O)c1cc(Br)c(N)c(Br)c1 (configuration not stated)	83.9 µM (inactive)	76.2 µM (inactive)	> 100 µM (inactive)	> 100 µM (inactive)	37.1 µM (inactive)		79.3 µM (inactive)	29.3 µM (inactive)	> 100 µM (inactive)	> 100 µM (inactive)	54.7 µM (inactive)	> 100 µM (inactive)	73.8 µM (inactive)	> 100 µM (inactive)	37.4 µM (inactive)	> 100 µM (inactive)	> 100 µM (inactive)	43 µM (inactive)	> 100 µM (inactive)	
O=C(Nc1c(Cl)cccc1Cl)c1c(Cl)c(Cl)c(Cl)c(Cl)c1-c1nc2ccccc2[nH]1	0.0507 µM (active)	56.9 µM (inactive)	26 µM (inactive)	42.8 µM (inactive)		0.313 µM (active)	76.7 µM (inactive)	63.7 µM (inactive)	49.5 µM (inactive)	> 100 µM (inactive)		14.5 µM (inactive)	50.1 µM (inactive)	22.1 µM (inactive)	9.48 µM (inactive)	0.155 µM (active)	46.8 µM (inactive)		29.9 µM (inactive)	37 µM (inactive)
O=S1(=O)OCCOS(=O)(=O)C1(F)Br	> 100 µM (inactive)		> 100 µM (inactive)	> 100 µM (inactive)		> 100 µM (inactive)	> 100 µM (inactive)	> 100 µM (inactive)	> 100 µM (inactive)	> 100 µM (inactive)	> 100 µM (inactive)	> 100 µM (inactive)	> 100 µM (inactive)	> 100 µM (inactive)	> 100 µM (inactive)	> 100 µM (inactive)	> 100 µM (inactive)	> 100 µM (inactive)	> 100 µM (inactive)	> 100 µM (inactive)
CNc1nnc(CCCCCCCCc2nnc(NC)o2)o1	> 100 µM (inactive)	> 100 µM (inactive)	29.9 µM (inactive)	> 100 µM (inactive)	> 100 µM (inactive)	> 100 µM (inactive)	> 100 µM (inactive)		> 100 µM (inactive)	> 100 µM (inactive)	> 100 µM (inactive)	> 100 µM (inactive)	> 100 µM (inactive)	> 100 µM (inactive)	> 100 µM (inactive)	> 100 µM (inactive)	16.4 µM (inactive)	> 100 µM (inactive)	> 100 µM (inactive)	
Cn1c(=O)c2[nH]c(-n3nc(-c4ccccc4)cc3N)nc2n(C)c1=O	4.04 µM (inactive)	14.5 µM (inactive)	4.15 µM (inactive)	7.05 µM (inactive)	10.6 µM (inactive)			11.3 µM (inactive)	4.6 µM (inactive)	19.7 µM (inactive)		5.55 µM (inactive)	3.66 µM (inactive)	10.5 µM (inactive)	5.42 µM (inactive)	6.58 µM (inactive)		12.4 µM (inactive)	5.38 µM (inactive)	
CCCC(=O)OC1=C(c2ccccc2)Sc2ccccc2-n2cccc21	> 10 µM (inactive)		> 10 µM (inactive)	> 10 µM (inactive)	> 10 µM (inactive)	> 10 µM (inactive)	> 10 µM (inactive)	> 10 µM (inactive)	> 10 µM (inactive)	> 10 µM (inactive)				> 10 µM (inactive)	> 10 µM (inactive)	> 10 µM (inactive)	> 10 µM (inactive)	> 10 µM (inactive)	> 10 µM (inactive)	

Reference: ChEMBL document CHEMBL1201862, “PubChem BioAssay data set” (2004)
